These results are taken from paper PMC9247194, “Mapping of the sGC Stimulator BAY 41-2272 Binding Site on H-NOX Domain and Its Regulation by the Redox State of the Heme” (Frontiers in Cell and Developmental Biology, 2022).

This assay concerns the target T1, Ns H-NOX (Nostoc sp. PCC 7120 = FACHB-418, UniProt A0ACD6B960, C139A).
T1 construct: gene alr2278
The assay is described as follows: 1H-15N HSQC NMR titration (chemical shift perturbation). In kind it is binding. The settings on record: 298 K; heme-bound, no NO; surface site next to heme; one KD per perturbed residue.

T1 sequence (A0ACD6B960 entry or part of it C139A): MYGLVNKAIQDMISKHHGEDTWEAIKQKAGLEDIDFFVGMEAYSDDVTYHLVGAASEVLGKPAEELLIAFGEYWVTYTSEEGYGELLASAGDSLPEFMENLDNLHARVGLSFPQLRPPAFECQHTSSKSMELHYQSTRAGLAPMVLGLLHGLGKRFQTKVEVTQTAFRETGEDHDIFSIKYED

Take `Nc1nc(-c2nn(Cc3ccccc3F)c3ncccc23)ncc1C1CC1` [BAY 41-2272]: the KD entry is listed as “yielding the binding constant (K D ) for each residue”.
